Data taken from patent US20260240851A1, “Treatment of Parkinson's Disease in a Patient Using a Glucocerebrosidase Activator” (BIAL - R&D Investments, S.A., priority 2023, published 2026).
Like-named read-outs stand apart in the source and are kept apart here.

Assays:
Format in all cases: in vivo, human
[1] = LTI-291-004: fMRI, FDG-PET and functional outcome measures
Description: This study was a Phase 1B, randomized, double-blind, placebo-controlled, multiple oral dose study of Compound A in 14 subjects (aged 51 to 81 years) with GBA-PD. The objectives of this study were to investigate the safety, tolerability, and PK of multiple once-daily oral administration of Compound A and to explore the accompanying pharmacodynamic changes. Subjects received once-daily oral doses of 10 mg (n=6) or 60 mg (2×30 mg capsules) (n=6) Compound A or placebo (n=2) for 28 consecutive days. PK samples were measured once on Day 7 and Day 14 and 4 times after the last dose on Day 28. Plasma concentrations were summarized at each time point, and no PK parameters were estimated. The PD evaluations included fMRI measures; FDG-PET to determine the metabolic rate of glucose in specific regions of the brain; and functional outcome measures (MDS-UPDRS Part III and the MMSE). GluCer, GluSph, and LacCer and other sphingolipids were measured in PBMCs and plasma as biomarkers of pharmacological effect.

[2] = BIA 28-6156-110 DDI, metformin portion; settings: after 6 days of dosing with 60 mg, metformin portion
Description: In Cohort 2, a single oral dose 500 mg metformin was administered alone on Day 1. From Day 2 to Day 7, a single daily dose of 60 mg Compound A was administered.

[3] = LTI-291-002 multiple ascending dose study: plasma and CSF pharmacokinetics
Description: This study was a phase 1, randomized, double-blind, placebo-controlled, multiple ascending dose study of Compound A in 4 cohorts of middle-aged to elderly healthy participants (aged 52 to 75 years). […] A total of 39 healthy subjects were enrolled in 4 sequential cohorts. Subjects in each cohort received once-daily oral doses of 3 mg (n=7), 10 mg (n=8), 30 mg (n=8), or 60 mg (n=8) Compound A or placebo (n=8) for 14 days. Pharmacokinetic parameters were determined for each dose at Day 1, Day 7, and Day 14. Cerebrospinal fluid samples for Compound A concentrations were measured before the first dose and 4 hours after the last dose for each dose level. GluCer, glucosyl sphingosine (GluSph), and lactosyl-ceramide (LacCer) were measured in plasma, PBMCs, and CSF as biomarkers of pharmacological effects. Pharmacodynamic measurements consisted of battery of CNS (NeuroCart®) assessments including Saccadic Eye Movements, Smooth Pursuit Eye Movements, Adaptive Tracking, Body Sway, Visual Verbal Learning Test, and pharmaco-EEG.

[4] = 3 mg daily, dose 1, geometric mean
[5] = 3 mg daily, dose 7, geometric mean
[6] = 3 mg daily, dose 14, geometric mean
[7] = 10 mg daily, dose 1, geometric mean
[8] = 10 mg daily, dose 7, geometric mean
[9] = 10 mg daily, dose 14, geometric mean
[10] = 30 mg daily, dose 1, geometric mean
[11] = 30 mg daily, dose 7, geometric mean
[12] = 30 mg daily, dose 14, geometric mean
[13] = 60 mg daily, dose 1, geometric mean
[14] = 60 mg daily, dose 7, geometric mean
[15] = 60 mg daily, dose 14, geometric mean
[16] = human, plasma, oral, 3 mg, 3 mg daily, dose 1, geometric mean
[17] = human, plasma, oral, 3 mg, 3 mg daily, dose 7, geometric mean
[18] = human, plasma, oral, 3 mg, 3 mg daily, dose 14, geometric mean
[19] = human, plasma, oral, 10 mg, 10 mg daily, dose 1, geometric mean
[20] = human, plasma, oral, 10 mg, 10 mg daily, dose 7, geometric mean
[21] = human, plasma, oral, 10 mg, 10 mg daily, dose 14, geometric mean
[22] = human, plasma, oral, 30 mg, 30 mg daily, dose 1, geometric mean
[23] = human, plasma, oral, 30 mg, 30 mg daily, dose 7, geometric mean
[24] = human, plasma, oral, 30 mg, 30 mg daily, dose 14, geometric mean
[25] = human, plasma, oral, 60 mg, 60 mg daily, dose 1, geometric mean
[26] = human, plasma, oral, 60 mg, 60 mg daily, dose 7, geometric mean
[27] = human, plasma, oral, 60 mg, 60 mg daily, dose 14, geometric mean

SMILES: CCCCCO[C@H]1CC[C@H](NC(=O)c2cnn3c(C)cc(C)nc23)CC1 [Compound A, 5,7-dimethyl-N-((1S*,4S)-4-(pentyloxy)cyclohexyl)pyrazolo[1,5-a]pyrimidine-3-carboxamide]
- default mode network (DMN) assessed by fMRI ([1]; 10 or 60 mg daily for 28 days, differences not statistically significant): improved the default mode network
- MDS-UPDRS III and MMSE scores ([1]; Day 28 vs Day -1, all subjects): unchanged
- steady state concentrations of Compound A [2]: appeared not to have been reached
- AUC0-inf/dose [3, 4]: 818 ng·h/mL/mg
- Cmax/dose [3, 4]: 29.7 ng/mL/mg
- AUC0-inf/dose [3, 5]: 1570 ng·h/mL/mg
- Accumulation Index [3, 5]: 2.45
- Cavg [3, 5]: 80.1 ng/mL
- Cmax/dose [3, 5]: 47.2 ng/mL/mg
- AUC0-inf/dose [3, 6]: 2520 ng·h/mL/mg
- Accumulation Index [3, 6]: 2.78
- Cavg [3, 6]: 115 ng/mL
- Cmax/dose [3, 6]: 51.0 ng/mL/mg
- Fluctuation [3, 6]: 52.9%
- AUC0-inf/dose [3, 7]: 613 ng·h/mL/mg
- Cmax/dose [3, 7]: 30.7 ng/mL/mg
- AUC0-inf/dose [3, 8]: 1780 ng·h/mL/mg
- Accumulation Index [3, 8]: 2.29
- Cavg [3, 8]: 322 ng/mL
- Cmax/dose [3, 8]: 50.5 ng/mL/mg
- AUC0-inf/dose [3, 9]: 1860 ng·h/mL/mg
- Accumulation Index [3, 9]: 2.49
- Cavg [3, 9]: 313 ng/mL
- Cmax/dose [3, 9]: 49.3 ng/mL/mg
- Fluctuation [3, 9]: 76.0%
- AUC0-inf/dose [3, 10]: 753 ng·h/mL/mg
- Cmax/dose [3, 10]: 29.0 ng/mL/mg
- AUC0-inf/dose [3, 11]: 1890 ng·h/mL/mg
- Accumulation Index [3, 11]: 2.11
- Cavg [3, 11]: 1100 ng/mL
- Cmax/dose [3, 11]: 53.3 ng/mL/mg
- AUC0-inf/dose [3, 12]: 4620 ng·h/mL/mg
- Accumulation Index [3, 12]: 5.22
- Cavg [3, 12]: 1090 ng/mL
- Cmax/dose [3, 12]: 50.0 ng/mL/mg
- Fluctuation [3, 12]: 58.1%
- AUC0-inf/dose [3, 13]: 655 ng·h/mL/mg
- Cmax/dose [3, 13]: 32.6 ng/mL/mg
- AUC0-inf/dose [3, 14]: 2310 ng·h/mL/mg
- Accumulation Index [3, 14]: 2.72
- Cavg [3, 14]: 2170 ng/mL
- Cmax/dose [3, 14]: 53.2 ng/mL/mg
- AUC0-inf/dose [3, 15]: 2160 ng·h/mL/mg
- Accumulation Index [3, 15]: 2.53
- Cavg [3, 15]: 2120 ng/mL
- Cmax/dose [3, 15]: 51.2 ng/mL/mg
- Fluctuation [3, 15]: 67.6%
- total exposure (Cmax and AUC0-24) versus dose ([3]; 3 to 60 mg, after 1st, 7th and 14th dose): increase in a dose proportional manner
- Kp at 4 h ([3]; human, CSF and plasma, oral, after the 14th daily dose, across dose levels, read-out: CSF-to-plasma concentration ratio, mean): 0.0122 to 0.0128
- half-life ([3]; human, in vivo, oral, multiple doses, read-out: t½ after multiple doses in Trial LTI-291-002): 25 to 35 h
- AUC(0-inf) [3, 16]: 2450 ng·h/mL
- Cmax [3, 16]: 89.1 ng/mL
- AUC(0-t) ([3]; human, plasma, oral, 3 mg, 3 mg daily, dose 1, geometric mean, read-out: AUC0-24): 1050 ng·h/mL
- AUC(0-t) ([3]; human, plasma, oral, 3 mg, 3 mg daily, dose 1, geometric mean, read-out: AUC0-last): 1040 ng·h/mL
- half-life ([3]; human, plasma, oral, 3 mg, 3 mg daily, dose 1, geometric mean, read-out: t½ (converted)): 27.9 h
- AUC(0-inf) [3, 17]: 4720 ng·h/mL
- Cmax [3, 17]: 142 ng/mL
- AUC(0-t) ([3]; human, plasma, oral, 3 mg, 3 mg daily, dose 7, geometric mean, read-out: AUC0-24): 1920 ng·h/mL
- AUC(0-t) ([3]; human, plasma, oral, 3 mg, 3 mg daily, dose 7, geometric mean, read-out: AUC0-last): 2420 ng·h/mL
- half-life ([3]; human, plasma, oral, 3 mg, 3 mg daily, dose 7, geometric mean, read-out: t½ (converted)): 31.3 h
- AUC(0-inf) [3, 18]: 7560 ng·h/mL
- Cmax [3, 18]: 153 ng/mL
- AUC(0-t) ([3]; human, plasma, oral, 3 mg, 3 mg daily, dose 14, geometric mean, read-out: AUC0-24): 2770 ng·h/mL
- AUC(0-t) ([3]; human, plasma, oral, 3 mg, 3 mg daily, dose 14, geometric mean, read-out: AUC0-last): 4510 ng·h/mL
- half-life ([3]; human, plasma, oral, 3 mg, 3 mg daily, dose 14, geometric mean, read-out: t½ (converted)): 36.5 h
- AUC(0-inf) [3, 19]: 6130 ng·h/mL
- Cmax [3, 19]: 307 ng/mL
- AUC(0-t) ([3]; human, plasma, oral, 10 mg, 10 mg daily, dose 1, geometric mean, read-out: AUC0-24): 3410 ng·h/mL
- AUC(0-t) ([3]; human, plasma, oral, 10 mg, 10 mg daily, dose 1, geometric mean, read-out: AUC0-last): 3380 ng·h/mL
- half-life ([3]; human, plasma, oral, 10 mg, 10 mg daily, dose 1, geometric mean, read-out: t½ (converted)): 20.7 h
- AUC(0-inf) [3, 20]: 17800 ng·h/mL
- Cmax [3, 20]: 505 ng/mL
- AUC(0-t) ([3]; human, plasma, oral, 10 mg, 10 mg daily, dose 7, geometric mean, read-out: AUC0-24): 7730 ng·h/mL
- AUC(0-t) ([3]; human, plasma, oral, 10 mg, 10 mg daily, dose 7, geometric mean, read-out: AUC0-last): 7820 ng·h/mL
- half-life ([3]; human, plasma, oral, 10 mg, 10 mg daily, dose 7, geometric mean, read-out: t½ (converted)): 28.7 h
- AUC(0-inf) [3, 21]: 18600 ng·h/mL
- Cmax [3, 21]: 493 ng/mL
- AUC(0-t) ([3]; human, plasma, oral, 10 mg, 10 mg daily, dose 14, geometric mean, read-out: AUC0-24): 7510 ng·h/mL
- AUC(0-t) ([3]; human, plasma, oral, 10 mg, 10 mg daily, dose 14, geometric mean, read-out: AUC0-last): 11900 ng·h/mL
- half-life ([3]; human, plasma, oral, 10 mg, 10 mg daily, dose 14, geometric mean, read-out: t½ (converted)): 32.1 h
- AUC(0-inf) [3, 22]: 22600 ng·h/mL
- Cmax [3, 22]: 869 ng/mL
- AUC(0-t) ([3]; human, plasma, oral, 30 mg, 30 mg daily, dose 1, geometric mean, read-out: AUC0-24): 10600 ng·h/mL
- AUC(0-t) ([3]; human, plasma, oral, 30 mg, 30 mg daily, dose 1, geometric mean, read-out: AUC0-last): 10400 ng·h/mL
- half-life ([3]; human, plasma, oral, 30 mg, 30 mg daily, dose 1, geometric mean, read-out: t½ (converted)): 26 h
- AUC(0-inf) [3, 23]: 56800 ng·h/mL
- Cmax [3, 23]: 1600 ng/mL
- AUC(0-t) ([3]; human, plasma, oral, 30 mg, 30 mg daily, dose 7, geometric mean, read-out: AUC0-24): 26500 ng·h/mL
- AUC(0-t) ([3]; human, plasma, oral, 30 mg, 30 mg daily, dose 7, geometric mean, read-out: AUC0-last): 26300 ng·h/mL
- half-life ([3]; human, plasma, oral, 30 mg, 30 mg daily, dose 7, geometric mean, read-out: t½ (converted)): 25.7 h
- AUC(0-inf) [3, 24]: 139000 ng·h/mL
- Cmax [3, 24]: 1500 ng/mL
- AUC(0-t) ([3]; human, plasma, oral, 30 mg, 30 mg daily, dose 14, geometric mean, read-out: AUC0-24): 26200 ng·h/mL
- AUC(0-t) ([3]; human, plasma, oral, 30 mg, 30 mg daily, dose 14, geometric mean, read-out: AUC0-last): 45000 ng·h/mL
- half-life ([3]; human, plasma, oral, 30 mg, 30 mg daily, dose 14, geometric mean, read-out: t½ (converted)): 75 h
- AUC(0-inf) [3, 25]: 39300 ng·h/mL
- Cmax [3, 25]: 1950 ng/mL
- AUC(0-t) ([3]; human, plasma, oral, 60 mg, 60 mg daily, dose 1, geometric mean, read-out: AUC0-24): 19600 ng·h/mL
- AUC(0-t) ([3]; human, plasma, oral, 60 mg, 60 mg daily, dose 1, geometric mean, read-out: AUC0-last): 19200 ng·h/mL
- half-life ([3]; human, plasma, oral, 60 mg, 60 mg daily, dose 1, geometric mean, read-out: t½ (converted)): 25.1 h
- AUC(0-inf) [3, 26]: 139000 ng·h/mL
- Cmax [3, 26]: 3190 ng/mL
- AUC(0-t) ([3]; human, plasma, oral, 60 mg, 60 mg daily, dose 7, geometric mean, read-out: AUC0-24): 52100 ng·h/mL
- AUC(0-t) ([3]; human, plasma, oral, 60 mg, 60 mg daily, dose 7, geometric mean, read-out: AUC0-last): 50300 ng·h/mL
- half-life ([3]; human, plasma, oral, 60 mg, 60 mg daily, dose 7, geometric mean, read-out: t½ (converted)): 35.8 h
- AUC(0-inf) [3, 27]: 130000 ng·h/mL
- Cmax [3, 27]: 3070 ng/mL
- AUC(0-t) ([3]; human, plasma, oral, 60 mg, 60 mg daily, dose 14, geometric mean, read-out: AUC0-24): 50900 ng·h/mL
- AUC(0-t) ([3]; human, plasma, oral, 60 mg, 60 mg daily, dose 14, geometric mean, read-out: AUC0-last): 82000 ng·h/mL
- half-life ([3]; human, plasma, oral, 60 mg, 60 mg daily, dose 14, geometric mean, read-out: t½ (converted)): 32.9 h
- half-life ([3]; human, plasma, oral, after the 1st dose, across dose levels, read-out: mean t1/2): 20.7 to 27.9 h
- half-life ([3]; human, plasma, oral, after the 7th dose, across dose levels, read-out: mean t1/2): 25.7 to 35.8 h
- half-life ([3]; human, plasma, oral, after the 14th dose, across dose levels, read-out: mean t1/2): 32.1 to 75 h
- steady-state conditions ([3]; once-daily dosing): achieved by the 7th daily dose
